Key:
[1] = Plasma PK parameters at Week 2 and Week 8, interim analysis (Example 4); assay type: in vivo, human; parameters: AUC: concentration or dose not given beside the values; details: for Cmax / AUC: human
Method: Methods: HCV treatment-naïve or (peg)IFN±ribavirin treatment-experienced GT1/4-infected cirrhotic pts≧18 yrs with Child-Pugh (CP) score<7 (Class A) with evidence of portal hypertension or 7-9 (Class B) were enrolled. Pts received 12 wks of SMV (150 mg once daily [QD]), DCV (60 mg QD) and SOF (400 mg QD). Primary efficacy endpoint: sustained virologic response 12 wks after end of treatment (EOT, SVR12). Key secondary endpoints: SVR4, on-treatment failure, viral relapse, PK and safety.

[2] = Pharmacokinetic analysis at week 2 and week 8 (Example 5); assay type: in vivo, human
[3] = plasma, oral, Week 2, Child-Pugh A (n = 19)
[4] = plasma, oral, Week 2, Child-Pugh B (n = 9)
[5] = plasma, oral, Week 8, Child-Pugh A (n = 18)
[6] = plasma, oral, Week 8, Child-Pugh B (n = 9)
[7] = in vivo, Week 2, Child-Pugh A (n = 19), plasma
[8] = in vivo, Week 2, Child-Pugh B (n = 9), plasma
[9] = in vivo, Week 8, Child-Pugh A (n = 18), plasma
[10] = in vivo, Week 8, Child-Pugh B (n = 9), plasma

SMILES	Mean exposures within groups and at Wk2 vs Wk8 ([1]; CP A and CP B)	Cmax [1, 3]	AUC [1, 4]	Cmax [1, 4]	AUC [1, 5]	Cmax [1, 5]	AUC [1, 6]	Cmax [1, 6]	mean exposure, higher in Child-Pugh B subjects than in Child-Pugh A subjects ([2]; treatment with SMV+SOF+DCV)	further results
COC(=O)N[C@H](C(=O)N1CCC[C@H]1c1nc(-c2ccc(-c3ccc(-c4c[nH]c([C@@H]5CCCN5C(=O)[C@@H](NC(=O)OC)C(C)C)n4)cc3)cc2)c[nH]1)C(C)C [Daclatasvir, daclatasvir]	similar	1150 ng/mL	14200 ng·h/mL	958 ng/mL	15600 ng·h/mL	1070 ng/mL	13500 ng·h/mL	854 ng/mL	–	AUC, mean ([1]; Week 2, Child-Pugh A (n = 19), plasma): 16022 ng·h/mL; mean exposure in Child-Pugh A and Child-Pugh B subjects ([2]; treatment with SMV+SOF+DCV): similar
C[C@@]1(F)[C@H](O)[C@@H](CO)O[C@H]1n1ccc(=O)[nH]c1=O [GS-331007]	–	–	–	–	–	–	–	–	–	mean exposure in Child-Pugh A and Child-Pugh B subjects ([2]; in vivo): similar
COc1ccc2c(O[C@@H]3C[C@H]4C(=O)N[C@]5(C(=O)NS(=O)(=O)C6CC6)C[C@H]5/C=C\CCCCN(C)C(=O)[C@@H]4C3)cc(-c3nc(C(C)C)cs3)nc2c1C [Simeprevir, simeprevir]	–	6980 ng/mL	144000 ng·h/mL	7950 ng/mL	98600 ng·h/mL	6030 ng/mL	176000 ng·h/mL	8840 ng/mL	2.2 fold	Mean exposures for both groups, Wk2 vs Wk8 ([1]; CP A and CP B): comparable; Mean SMV exposure (AUC), higher in CP B vs CP A pts ([1]; Wk2): 1.3 fold; individual pt exposures in the CP B group ([1]; compared with CP A): within the range observed for CP A; AUC [1, 3]: 114000 ng·h/mL
CC(C)OC(=O)[C@H](C)N[P@](=O)(OC[C@H]1O[C@@H](n2ccc(=O)[nH]c2=O)[C@](C)(F)[C@@H]1O)Oc1ccccc1 [Sofosbuvir, sofosbuvir]	similar	–	–	–	–	–	–	–	1.4 fold	AUC [1, 7]: 2860 ng·h/mL; Cmax [1, 7]: 1570 ng/mL; AUC [1, 8]: 3770 ng·h/mL; Cmax [1, 8]: 1740 ng/mL; AUC [1, 9]: 2730 ng·h/mL; Cmax [1, 9]: 1280 ng/mL; AUC [1, 10]: 3770 ng·h/mL; Cmax [1, 10]: 1420 ng/mL

— patent US20160206645A1, “COMBINATION THERAPIES FOR TREATMENT OF HCV” (priority 2015, published 2016)
